Laboratory results as given in publication PMC3942692, “Mitochondrial FAD-linked Glycerol-3-phosphate Dehydrogenase: A Target for Cancer Therapeutics” (Pharmaceuticals, 2014).

Target: T1, GPD2 (mitochondrial glycerol-3-phosphate dehydrogenase) (Homo sapiens, UniProt P43304)
T1 construct: aa 43-727 (mitochondrial transit peptide removed), N-terminal Strep-tag II, expressed in E. coli GJ1158, Strep-Tactin purified; cDNA from PC-3 cells; EC 1.1.5.3
T1 sequence (P43304 43-727): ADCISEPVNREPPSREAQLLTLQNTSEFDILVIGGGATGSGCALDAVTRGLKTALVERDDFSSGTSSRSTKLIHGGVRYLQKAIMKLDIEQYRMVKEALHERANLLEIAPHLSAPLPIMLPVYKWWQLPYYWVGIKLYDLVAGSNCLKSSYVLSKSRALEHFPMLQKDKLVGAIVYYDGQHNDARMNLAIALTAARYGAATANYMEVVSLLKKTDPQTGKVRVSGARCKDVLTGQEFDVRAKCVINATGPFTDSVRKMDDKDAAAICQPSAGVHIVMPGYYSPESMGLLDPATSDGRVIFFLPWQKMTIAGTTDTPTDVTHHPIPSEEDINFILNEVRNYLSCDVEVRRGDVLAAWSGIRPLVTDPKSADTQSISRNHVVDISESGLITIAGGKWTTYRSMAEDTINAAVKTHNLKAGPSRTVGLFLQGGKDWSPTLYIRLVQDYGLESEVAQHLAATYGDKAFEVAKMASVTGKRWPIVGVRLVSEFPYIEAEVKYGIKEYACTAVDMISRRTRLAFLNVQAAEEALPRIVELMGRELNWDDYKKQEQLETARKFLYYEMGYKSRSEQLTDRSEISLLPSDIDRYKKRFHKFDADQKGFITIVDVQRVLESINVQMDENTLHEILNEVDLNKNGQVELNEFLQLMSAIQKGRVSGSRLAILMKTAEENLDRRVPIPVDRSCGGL
Experiment: GPD2 oxidoreductase, resazurin reduction fluorescence
Assay type: biochemical
Conditions: 30 mM glycerol-3-phosphate
Source text: GPD2 oxidoreductase, resazurin reduction fluorescence on GPD2 (mitochondrial glycerol-3-phosphate dehydrogenase) | six GPD2 activity inhibitors selected for follow-up analysis are shown

| EC50 [µM] | Compound |
| --- | --- |
| 28 ± 13.9 | RH02211 |
| 1.23 ± 0.54 | CCOC(=O)c1ccc(-n2sccc2=O)cc1 [KM04416] |
